These results are taken from patent publication US9790169B2, “IDO inhibitors” (BRISTOL-MYERS SQUIBB COMPANY, priority 2015, dated 2017).

In the test the target is human IDO1 (Homo sapiens, UniProt P14902). The test is described as follows: Assessment of human IDO-1 inhibitory activity in HEK cells (human IDO1/HEK293 cells, kynurenine read-out with Ehrlich reagent, absorbance 490 nm). Type of test: cell-based. Details: expressed in transfected cells. Conditions: HEK Human IDO-1 cellular assay. The procedure, abridged:
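Kynurenine output from stably IDO1-transfected HEK293 cells (10,000/well, phenol red-free RPMI, 10% FBS) after 20 h compound exposure at 37 °C. The reaction was stopped with 0.2% TCA and heated 30 min at 50 °C, then the supernatant was mixed with Ehrlich reagent and read at 490 nm. IC50 was set against DMSO and a 500 nM reference standard as 0 and 100% inhibition.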

Sequence of human IDO1 (P14902 whole entry): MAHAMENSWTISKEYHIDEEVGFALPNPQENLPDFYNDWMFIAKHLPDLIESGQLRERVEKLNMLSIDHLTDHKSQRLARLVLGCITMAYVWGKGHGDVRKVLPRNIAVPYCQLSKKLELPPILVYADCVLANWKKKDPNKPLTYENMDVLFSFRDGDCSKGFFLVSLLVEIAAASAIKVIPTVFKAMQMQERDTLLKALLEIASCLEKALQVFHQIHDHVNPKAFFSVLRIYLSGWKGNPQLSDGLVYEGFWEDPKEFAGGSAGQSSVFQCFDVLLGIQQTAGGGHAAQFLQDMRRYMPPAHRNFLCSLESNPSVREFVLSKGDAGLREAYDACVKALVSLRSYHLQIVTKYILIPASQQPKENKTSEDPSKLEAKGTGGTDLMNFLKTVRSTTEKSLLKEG

Regarding `CCC(CC(=O)O)c1ccc(N(CC2CC2)C2CCOCC2)c(Nc2ccc(Cl)cc2)c1` (single isomer, unassigned) [Example 702, 3-(3-((4-chlorophenyl)amino)-4-((cyclopropylmethyl) (tetrahydro-2H-pyran-4-yl)amino)phenyl)pentanoic acid], the 50% inhibitory concentration (IC50) (commonly the concentration that gives 50% inhibition) is below 5 nM.

Consider `CCC(CC(=O)O)c1ccc(N(CC2CC2)C2CCOCC2)c(Nc2cnc(OC)nc2)c1` (single isomer, unassigned) [Example 703, 3-(4-((cyclopropylmethyl) (tetrahydro-2H-pyran-4-yl)amino)-3-((2-methoxypyrimidin-5-yl)amino)phenyl)pentanoic acid], for which the half-inhibitory concentration (IC50) was below 5 nM.

As to `CCC(CC(=O)O)c1ccc(N(CC2CC2)C2CCOCC2)c(Nc2ccc3c(c2)OC(F)(F)O3)c1` (single isomer, unassigned) [Example 704, 3-(4-((cyclopropylmethyl) (tetrahydro-2H-pyran-4-yl)amino)-3-((2,2-difluorobenzo[d][1,3]dioxol-5-yl)amino)phenyl) pentanoic acid], the half-inhibitory concentration (IC50) is below 50 nM.

`CCOc1ncc(Nc2cc(C(CC)CC(=O)O)ccc2N(CC2CC2)C2CCOCC2)cn1` (single isomer, unassigned) [Example 705, 3-(4-((cyclopropylmethyl) (tetrahydro-2H-pyran-4-yl)amino)-3-((2-ethoxypyrimidin-5-yl)amino)phenyl)pentanoic acid]: the half-inhibitory concentration (IC50) was below 5 nM.

In the case of `CCC(CC(=O)O)c1ccc(N(CC2CC2)C2CCOCC2)c(Nc2ccc(C#N)cc2)c1` (single isomer, unassigned) [Example 706, 3-(3-((4-cyanophenyl)amino)-4-((cyclopropylmethyl) (tetrahydro-2H-pyran-4-yl)amino)phenyl)pentanoic acid], the IC50 was below 5 nM.

As for `CCC(CC(=O)O)c1ccc(N(CC2CC2)C(C)C)c(Nc2ccc(Cl)cc2)c1` (single isomer, unassigned) [Example 714, 3-(3-((4-chlorophenyl)amino)-4-((cyclopropylmethyl) (isopropyl)amino)phenyl) pentanoic acid], the 50% inhibitory concentration (IC50) is below 5 nM.

`CCC(CC(=O)O)c1ccc(N(CC2CC2)C(C)C)c(Nc2ccc3c(c2)OC(F)(F)O3)c1` (single isomer, unassigned) [Example 715, 3-(4-((cyclopropylmethyl) (isopropyl)amino)-3-((2,2-difluorobenzo[d][1,3]dioxol-5-yl)amino)phenyl) pentanoic acid]: the IC50 is below 50 nM.

In the case of `CCC(CC(=O)O)c1ccc(N(CC2CC2)C(C)C)c(Nc2ccc3nc(C)sc3c2)c1` (single isomer, unassigned) [Example 716, 3-(4-((Cyclopropylmethyl)(isopropyl)amino)-3-((2-methylbenzo[d]thiazol-6-yl)amino)phenyl)pentanoic acid], the half-maximal inhibitory concentration (IC50) was above 50 nM.

In the case of `CCOc1ncc(Nc2cc(C(CC)CC(=O)O)ccc2N(CC2CC2)C(C)C)cn1` (single isomer, unassigned) [Example 718, 3-(4-((cyclopropylmethyl) (isopropyl)amino)-3-((2-ethoxypyrimidin-5-yl)amino)phenyl)pentanoic acid], the IC50 is below 50 nM.

For the compound `CCC(CC(=O)O)c1ccc(N(CC(C)C)C(C)C)c(Nc2ccc(Cl)cc2)c1` (single isomer, unassigned) [Example 727, 3-(3-((4-Chlorophenyl)amino)-4-(isobutyl(isopropyl)amino)phenyl)pentanoic acid], the half-inhibitory concentration (IC50) was below 5 nM.

For `CCC(CC(=O)O)c1ccc(N(CC(C)C)C(C)C)c(Nc2ccc3nc(C)sc3c2)c1` (single isomer, unassigned) [Example 729, 3-(4-(isobutyl(isopropyl)amino)-3-((2-methylbenzo[d]thiazol-6-yl)amino)phenyl)pentanoic acid], the half-maximal inhibitory concentration (IC50) was above 50 nM.

Regarding `CC(CC(=O)O)c1ccc(N2C[C@@H](C)O[C@@H](C)C2)c(Nc2ccc(C#N)cc2)c1` (single isomer, unassigned) [Example 737], the half-inhibitory concentration (IC50) was above 50 nM.

As for `CC(CC(=O)O)c1ccc(N2C[C@@H](C)O[C@@H](C)C2)c(Nc2ccc(F)cc2)c1` (single isomer, unassigned) [Example 738], the IC50 is above 50 nM.

For `CC(CC(=O)O)c1ccc(N2C[C@@H](C)O[C@@H](C)C2)c(Nc2ccc(Cl)cc2)c1` (single isomer, unassigned) [Example 739], the IC50 was above 50 nM.

As for `CCc1ccc(Nc2cc(C(C)CC(=O)O)ccc2N2C[C@@H](C)O[C@@H](C)C2)cc1` (single isomer, unassigned) [Example 740], the half-inhibitory concentration (IC50) was above 50 nM.

In the case of `COc1ncc(Nc2cc(C(C)CC(=O)O)ccc2N2C[C@@H](C)O[C@@H](C)C2)cn1` (single isomer, unassigned) [Example 741], the IC50 is above 50 nM.

Consider `CC(CC(=O)O)c1ccc(N2C[C@@H](C)O[C@@H](C)C2)c(Nc2ccc(Cl)cc2)c1` (single isomer, unassigned) [Example 745], for which the IC50 is below 50 nM.

Consider `CC[C@@H](CC(=O)O)c1ccc(N2C[C@@H](C)O[C@@H](C)C2)c(NC(=O)Nc2ccc(C)cc2)c1` (single isomer, unassigned) [Example 754], for which the half-inhibitory concentration (IC50) is above 50 nM.

On to `CCOc1ncc(Nc2cc(C(CC)CC(=O)O)ccc2N2C[C@@H](C)O[C@@H](C)C2)cn1` (single isomer, unassigned) [Example 756], for which the IC50 was above 50 nM.

On to `CCC(CC(=O)O)c1ccc(N2C[C@@H](C)O[C@@H](C)C2)c(Nc2ccc3c(c2)OC(F)(F)O3)c1` (single isomer, unassigned) [Example 758], for which the IC50 is above 50 nM.

Regarding `CC[C@H](CC(=O)O)c1ccc(N2C[C@@H](C)O[C@@H](C)C2)c(NC(=O)Nc2ccc(C)cc2)c1` (single isomer, unassigned) [Example 760], the IC50 is above 50 nM.

Take `CC[C@H](CC(=O)O)c1ccc(N2C[C@@H](C)O[C@@H](C)C2)c(Nc2ccc(Cl)cc2)c1` (single isomer, unassigned) [Example 761]: the IC50 was below 50 nM.

Turning to `CCC(CC(=O)O)c1ccc(N2C[C@@H](C)O[C@@H](C)C2)c(Nc2ccc(C#N)cc2)c1` (single isomer, unassigned) [Example 764], the IC50 is below 50 nM.

For `CCC(CC(=O)O)c1ccc(N2C[C@@H](C)O[C@@H](C)C2)c(Nc2ccc3c(c2)OC(F)(F)O3)c1` (single isomer, unassigned) [Example 765], the IC50 was below 50 nM.

For `CC[C@H](CC(=O)O)c1ccc(N2CCC[C@H]2C(C)(C)O)c(NC(=O)Nc2ccc(C)cc2)c1` (single isomer, unassigned) [Example 767], the IC50 was above 50 nM.

With `CC[C@@H](CC(=O)O)c1ccc(N2CCC[C@H]2C(C)(C)O)c(NC(=O)Nc2ccc(C)cc2)c1` (single isomer, unassigned) [Example 769], the half-inhibitory concentration (IC50) is above 50 nM.

`CC[C@@H](CC(=O)O)c1ccc(N2CCC[C@@H]2C(C)(C)O)c(Nc2ccc(C#N)cc2)c1` (single isomer, unassigned) [Example 771]: the half-maximal inhibitory concentration (IC50) is below 50 nM.

In the case of `CCC(CC(=O)O)c1ccc(N2CCC[C@@H]2C(C)(C)O)c(Nc2ccc(Cl)cc2)c1` (single isomer, unassigned) [Example 773], the IC50 was below 50 nM.

With `CC[C@H](CC(=O)O)c1ccc(N2CCC[C@@H]2C(C)(C)O)c(NC(=O)Nc2ccc(C)cc2)c1` (single isomer, unassigned) [Example 774], the IC50 is above 50 nM.

For `CC[C@H](CC(=O)O)c1ccc(N2CCC[C@@H]2C(C)(C)O)c(Nc2ccc(Cl)cc2)c1` (single isomer, unassigned) [Example 780], the IC50 is below 5 nM.

With `CCC(CC(=O)O)c1ccc(N2CCC[C@@H]2C(C)(C)O)c(Nc2ccc3c(c2)OC(F)(F)O3)c1` (single isomer, unassigned) [Example 781], the IC50 is above 50 nM.

Consider `CCC(CC(=O)O)c1ccc(N2CCC[C@@H]2C(C)(C)O)c(Nc2ccc(C#N)cc2)c1` (single isomer, unassigned) [Example 782], for which the IC50 is below 50 nM.

Consider `CCC(CC(=O)O)c1ccc(N2CCC[C@@H]2C(C)(C)O)c(Nc2ccc(Cl)cc2)c1` (single isomer, unassigned) [Example 783], for which the 50% inhibitory concentration (IC50) is below 5 nM.

Turning to `CCC(CC(=O)O)c1ccc(N2CCC[C@@H]2C(C)(C)O)c(Nc2ccc(F)cc2)c1` (single isomer, unassigned) [Example 784], the IC50 was above 50 nM.

With `CC[C@@H](CC(=O)O)c1ccc(N2CCC[C@H]2C(C)(C)F)c(NC(=O)Nc2ccc(C)cc2)c1` (single isomer, unassigned) [Example 785], the IC50 was above 50 nM.

For `CCC(CC(=O)O)c1ccc(N2CCC[C@H]2C(C)(C)F)c(NC(=O)Nc2ccc(Cl)cc2F)c1` (single isomer, unassigned) [Example 786], the concentration for half-maximal inhibition (IC50) is above 50 nM.

On to `CC[C@@H](CC(=O)O)c1ccc(N2CCC[C@H]2C(C)(C)F)c(Nc2ccc(Cl)cc2)c1` (single isomer, unassigned) [Example 788], for which the half-maximal inhibitory concentration (IC50) was below 5 nM.

As for `CCC(CC(=O)O)c1ccc(N2CCC[C@H]2C(C)(C)F)c(Nc2ccc3nc(C)sc3c2)c1` (single isomer, unassigned) [Example 789], the 50% inhibitory concentration (IC50) is above 50 nM.

With `CCC(CC(=O)O)c1ccc(N2CCC[C@H]2C(C)(C)F)c(Nc2ccc3c(c2)OC(F)(F)O3)c1` (single isomer, unassigned) [Example 790], the concentration for half-maximal inhibition (IC50) is below 50 nM.

As to `CC[C@H](CC(=O)O)c1ccc(N2CCC[C@H]2C(C)(C)F)c(NC(=O)Nc2ccc(Cl)cc2F)c1` (single isomer, unassigned) [Example 791], the concentration for half-maximal inhibition (IC50) is below 50 nM.

In the case of `CCC(CC(=O)O)c1ccc(N2CCC[C@H]2C(C)(C)F)c(NC(=O)Nc2ccc(C)cc2)c1` (single isomer, unassigned) [Example 792], the concentration for half-maximal inhibition (IC50) was above 50 nM.

As to `CCC(CC(=O)O)c1ccc(N2CCC[C@H]2C(C)(C)F)c(Nc2ccc3nc(C)sc3c2)c1` (single isomer, unassigned) [Example 794], the concentration for half-maximal inhibition (IC50) is below 50 nM.

Turning to `CCC(CC(=O)O)c1ccc(N2CCC[C@H]2C(C)(C)F)c(Nc2ccc3c(c2)OC(F)(F)O3)c1` (single isomer, unassigned) [Example 796], the half-inhibitory concentration (IC50) was above 50 nM.
